Results on 7 molecules are retold here after patent publication US4517202A, “Prostaglandin analogues” (May & Baker Limited, priority 1982, dated 1985).

≈ marks a conversion by molar mass, not a printed value. Where two headings read alike, the source gives them in different places.

A short description of data set [1]: isomerisation of (Z)-isomer at ambient temperature. The class given is physicochemical.
Data set [2] relates to collagen-induced β-thromboglobulin release. Description: inhibition of collagen-induced β-thromboglobulin release in vitro in human blood. The settings on record: read-out: ED50 (concentration which produced 50% inhibition of the β-thromboglobulin release). The class given is cell-based.
The subject of the next data set is diastolic blood pressure. Description: fall in diastolic blood pressure in anaesthetised rats. The class given is in vivo. The settings on record: rats anaesthetised with pentobarbitone; intravenously at a rate of 45 μg/kg animal body weight. The protocol: In other laboratory tests, compound B produced a 25% fall in diastolic blood pressure in rats (anaesthetised with pentobarbitone) when administered intravenously at a rate of 45 μg/kg animal body weight.

For data set [3] the following is noted: cited from earlier work.
For data set [4], the system named is artery and some other kinds of smooth muscle. To be noted: cited from earlier work.
Data set [5] deals with arachidonic acid-induced blood platelet aggregation of the human. The settings on record: human platelets; cited from earlier work.
In another data set the test system is blood platelets. To be noted: cited from earlier work.

Consider `O=C(O)CCC/C=C1/C[C@H]2[C@H](CC[C@@H]2/C=C/[C@@H](O)C2CCCCC2)C1=O` (relative stereo) [(Z)-isomer], for which the “isomerisation back to the (E)-isomer” value in data set [1] is listed as “slowly isomerised back to the (E)-isomer”.
As to `O=C(O)CCC/C=C1\C[C@H]2[C@H](CC[C@@H]2/C=C/[C@@H](O)C2CCCCC2)C1=O` (relative stereo) [Compound B, (±)-(5E,13E)-(9S,15S)-6a-oxo-6,9-methano-15-cyclohexyl-15-hydroxy-16,17,18,19,20-pentanorprosta-5,13-dienoic acid], the IC50 in data set [2] worked out at 5 µg/mL (≈ 13.9 µM). Moreover, the “fall in diastolic blood pressure” value in the data set with diastolic blood pressure worked out at 25%.
Consider `CCCCCC(O)/C=C/[C@H]1CC[C@@H]2C(=O)/C(=C/CCCC(=O)O)C[C@@H]21` (relative stereo) [Compound E, (±)-(5E,13E)-(9S), [mixture of (15R) and (15S)]-6a-oxo-6,9-methano-15-hydroxyprosta-5,13-dienoic acid], for which the IC50 in data set [2] was determined as 34 µg/mL.
Still for that read-out and setting: for `CCCCCC(O)/C=C/[C@H]1CC[C@@H]2C(=O)/C(=C\CCCC(=O)O)C[C@@H]21` (relative stereo) [Compound F, (±)-(5Z,13E)-(9S), [mixture of (15R) and (15S)]-6a-oxo-6,9-methano-15-hydroxyprosta-5,13-dienoic acid] the value was less than 17 µg/mL.
Same read-out and setting: for `O=C(O)CCC/C=C1\C[C@H]2[C@H](CC[C@@H]2/C=C/C(O)C2CCCCC2)C1=O` (relative stereo) [Compound I, (±)-(5E,13E)-(9S),[mixture of (15R) and (15S)]-6a-oxo-6,9-methano-15-cyclohexyl-15-hydroxy-16,17,18,19,20-pentanorprosta-5,13-dienoic acid] the value was less than 17 µg/mL.
With `CCCCC[C@H](O)/C=C/[C@@H]1[C@H]2C/C(=C/CCCC(=O)O)O[C@H]2C[C@H]1O` [PGI2, (5Z,13E)-(9S,11R,15S)-6,9-epoxy-11,15-dihydroxyprosta-5,13-dienoic acid], the “time to deactivation in a buffer solution” value in data set [3] (pH 7.6, 22° C.) was 20 min; in data set [3] (pH 7.6, 37° C.) it was 10 min. Also, in data set [4], the “activity on the artery and some other kinds of smooth muscle” value is “strong relaxing activity”. In data set [5], the “inhibition of arachidonic acid-induced blood platelet aggregation” value was “strongly inhibits”.
Regarding `CCCCC[C@H](O)/C=C/[C@H]1O[C@H]2C[C@H](O2)[C@@H]1C/C=C\CCCC(=O)O` [thromboxane A2], the “activity on the artery and some other kinds of smooth muscle” value in data set [4] was “contracting activity”. For the same molecule, the “aggregating activity on blood platelets” value in the data set with blood platelets was “aggregating activity”.
